Data on 14 compounds can be found in patent US20240269094A1, “Treatment of canine dermatitis and skin irritation” (priority 2023, published 2024).

The test system of one data set is canine atopic dermatitis. The conditions noted are these: cited from earlier work.
The subject of data set [1] is tongue. Briefly: Oral cavity screen: 15 mg of crystals on the dorsal surface of the tongue. The data set is classed as in vivo, human. On the procedure: In this discovery, sensory activity in the oral cavity was the first screen. The goal was to identify candidates producing unusual sensations. Test agents, prepared as 15 mg of white crystals, were placed on the dorsal surface of the tongue. The chemical structures and identifying characteristics are in Table 1. […] Related cooling agents were not freezing cold, except for WS-23.

Data set [2] addresses T1, TRPM8 (Mus musculus, UniProt Q8R4D5). More on the design: EC50. The conditions noted are these: Ref. 3 (Bodding et al., 2007); cited from earlier work.
Data set [3] concerns the target TRPM8 (Homo sapiens, UniProt Q7Z2W7). Further details: EC50; other: Johnson, 2.2/2.2. The conditions noted are these: Ref. 5 (Johnson et al., 2018); cited from earlier work.
Data set [4] concerns the target T2, TRPM8 (Rattus norvegicus, UniProt Q8R455). Further details: EC50; other: Sherkheli, 196/1500. The conditions noted are these: Ref. 4 (Sherkheli et al., 2010); cited from earlier work.
A further data set relates to philtrum skin. Briefly: Philtrum (skin) bioassay of cooling. The data set is classed as in vivo, human. The conditions noted are these: for Comments: quality of sensation on philtrum skin: 8% wt/vol; for Duration of cooling: 8% wt/vol on philtrum; for Duration-Skin: Wei, Table 6, see FIG. 6. The procedure: FIG. 5. The philtrum bioassay. Cooling agents, prepared as a or in solution are applied to the philtrum skin. Cooling intensity is rated on a scale of 0 to 3, with 0=no changes in sensation, 1=a slight feeling of coolness, cold or tingling, 2=a clearcut feeling of coolness of cold, and 3=a robust feeling of coolness of cold. The duration of cooling was recorded until two zeroes were measured 10 min apart.
TRPM8 EC50 Receptor Assay. […] A receptor assay is a standard tool and can be done quickly. For example, in a 384-plate assay, you can easily test 10 compounds and get dose-response data. For a chemical agonist, an in vitro TRPM8 assay generates an EC50 (median effective concentration). But the quantitative correlation between the EC50 on TRPM8 and cooling sensation was vague. That is, the science was “roughly” predictive, but there was considerable uncertainty for each agonist. […] Philtrum (Skin) Assay. For cooling sensations on the skin, it is necessary to test the substance on the skin. Wei proposed the use of the skin on the philtrum as a test site for cooling activity of chemicals (FIG. 5). The test substance is dissolved in a carrier, such as solvent, gel, or ointment and applied to the philtrum, a surface area of […]. The subject records sensations on the philtrum and environs as:
The subject is given a form to record observations and instructions to mark sensations on the philtrum and environs as: 0=no changes in sensation, 1=a slight feeling of coolness, cold, or tingling, 2=a clearcut feeling of coolness or cold, and 3=a robust feeling of coolness and cold.
The intervals for measurements are usually at 5, to 15 min after application, until two successive zeros are obtained. The philtrum application site is the midline groove above the upper lip border and vermilion. The gel is placed on the philtrum with a cotton-tipped applicator up to the nasolabial folds and sometimes, but not deliberately, on the lower nostrils (subnasale). Cold receptors densely innervate the philtrum skin (FIG. 5), second only to the surfaces of the eyeball and anogenitalia. The lips also have a high density of “cold spots.” Hensel et al. mapped the cold spots on the human face (cited in Dhaka et al., 2008). In animals such as the rat the mystacial pad (nose pad with vibrissae) is abundantly labeled with TRPM8-fibers. “Cold Points” linked to single-unit neuronal discharges can be measured in experimental animals. Wei has direct experience in such experiments (Poree et al., 1989).
Dip a cotton-tipped applicator (Puritan Cotton-tipped applicators, or Q-Tips) into a reservoir bottle containing the liquid or semi-liquid (gel) test substance. The composition adhering to the cotton (about 0.1 mL) is put on the skin. The philtrum site is shown in a cartoon. A subject can practice the method in front of a mirror with a high-intensity light source. Results for test on the philtrum are in Table 8 and FIG. 5. See data in FIG. 6. Cooling agents, prepared as an 8% wt./vol. gel, was tested topically on the philtrum skin assay. The duration of cooling was recorded (min on y-axis). The startling activity of FEMA 4557, cooling for ˜3 hr, was unexpected and surprising. FEMA 3784 is also known as Cool 10 or menthoxypropanediol. […]

A further data set concerns oral cavity. The conditions noted are these: 100 ppm in 5% sucrose; scale of 0 to 9 units; Johnson, 2018; cited from earlier work.
For a further data set, the target named is T3, TRPA1 (Homo sapiens, UniProt O75762).
T3 construct: expressed in transfected cells
Briefly: Bioassay in cells transfected with TRPA1 (FIG. 4). The data set is classed as cell-based. From the text:
FIG. 4 Bioassay of FEMA 4557 (labeled as BUDA on the graph) in TRPM8 and TRPA1. Data from the laboratory of Prof. Seok-Yong Lee at Duke University.
FIG. 4 Bioassay of FEMA 4557 (labeled as BUDA) in TRPM8 and TRPA1. Data of Prof. Seok-Yong Lee at Duke University.

Data set [5] deals with canine dermatitis, scratching and licking. Briefly: Topical treatment of canine skin irritation (case studies). The data set is classed as in vivo, dog. The conditions noted are these: Study 3, repeated bathing. On the procedure: The Applicant gave the dog's owner an airless pump dispenser containing 8% wt/vol of FEMA 4557 dispersed in 4 mg/ml of carbapol 980, formulated with 1% ethanol and 1% menthol, and instructed him to apply the gel to the skin of the dog's belly and groin.
A twelve-year-old West Highland Terrier had periodic episodes of seasonal skin allergy. […] The owner of the dog, who had access to a pharmacy, applied nystatin ointment and a potent skin steroid cream containing […].
Next, a 20% wt/vol FEMA 4557 solution, dissolved in propylene glycol, was applied to the interdigital folds of the paws with a cotton-tipped applicator (FIG. 9).

Data set [6] deals with T2, TRPM8. The conditions noted are these: Ref. 1 column (McKemy et al., 2002); cited from earlier work.
The test system of a further data set is scratching excoriations. The conditions noted are these: ointment; Biro et al., 2005; cited from earlier work.
The nature of data set [7]: Comparison of classes of cooling agents for applications on the canine skin (grades). The conditions noted are these: grade. More on the design: species or system dog; key: A = excellent; B = average; C = poor; F = does not work. From the text: Here are comments on grades assigned to specific classes of cooling agents (Table 3). […] The p-menthane carboxamides cover a wide range of compounds, but they are difficult for skin formulation to achieve a long duration of action. Menthol is short-acting and irritating, especially when it is near the ocular surface. The 1-dialkylphosphorylalkane known as DIPA1-7 (Cryosim-1, 1-dialkylphosphorylheptane) is an excellent skin agent, but costs are high for dermatological applications.

Data set [8] concerns the target T1, TRPM8. The conditions noted are these: Ref. 2 (Behrendt et al., 2004); cited from earlier work.
For data set [9], the system named is itch of urticaria and scalp itch. The conditions noted are these: Kang et al., 2022; cited from earlier work.
Data set [10] concerns tongue. Briefly: Oral cavity screen: 15 mg of crystals on the dorsal surface of the tongue. The data set is classed as in vivo, human. The conditions noted are these: less than 2 mg on the tongue.
The test system of data set [11] is itch induced by various pruritogens. Briefly: Itch induced by pruritogens on skin of healthy volunteers (FIG. 1). The conditions noted are these: gel on skin, five test pruritogens, itch self-rated 0 to 10 for 10 min. The data set is classed as in vivo, human. The procedure: FIG. 1. Topical Application of a cooling DIPA1-7 gel on skin of healthy volunteers inhibits itch induced by various pruritogens. n=30 subjects per trial. Results of Prof. Hyeone Kim, Sacred Heart Hospital, […] University, Seoul, Korea. Itch intensity was self-rated on a scale of 0 to 10 for 10 min (maximum score=100). […] Further details will be described in a scientific paper.

pEC50: −log10 of the molar value. Where two headings read alike, the source gives them in different places.

T1 sequence (Q8R4D5 whole entry): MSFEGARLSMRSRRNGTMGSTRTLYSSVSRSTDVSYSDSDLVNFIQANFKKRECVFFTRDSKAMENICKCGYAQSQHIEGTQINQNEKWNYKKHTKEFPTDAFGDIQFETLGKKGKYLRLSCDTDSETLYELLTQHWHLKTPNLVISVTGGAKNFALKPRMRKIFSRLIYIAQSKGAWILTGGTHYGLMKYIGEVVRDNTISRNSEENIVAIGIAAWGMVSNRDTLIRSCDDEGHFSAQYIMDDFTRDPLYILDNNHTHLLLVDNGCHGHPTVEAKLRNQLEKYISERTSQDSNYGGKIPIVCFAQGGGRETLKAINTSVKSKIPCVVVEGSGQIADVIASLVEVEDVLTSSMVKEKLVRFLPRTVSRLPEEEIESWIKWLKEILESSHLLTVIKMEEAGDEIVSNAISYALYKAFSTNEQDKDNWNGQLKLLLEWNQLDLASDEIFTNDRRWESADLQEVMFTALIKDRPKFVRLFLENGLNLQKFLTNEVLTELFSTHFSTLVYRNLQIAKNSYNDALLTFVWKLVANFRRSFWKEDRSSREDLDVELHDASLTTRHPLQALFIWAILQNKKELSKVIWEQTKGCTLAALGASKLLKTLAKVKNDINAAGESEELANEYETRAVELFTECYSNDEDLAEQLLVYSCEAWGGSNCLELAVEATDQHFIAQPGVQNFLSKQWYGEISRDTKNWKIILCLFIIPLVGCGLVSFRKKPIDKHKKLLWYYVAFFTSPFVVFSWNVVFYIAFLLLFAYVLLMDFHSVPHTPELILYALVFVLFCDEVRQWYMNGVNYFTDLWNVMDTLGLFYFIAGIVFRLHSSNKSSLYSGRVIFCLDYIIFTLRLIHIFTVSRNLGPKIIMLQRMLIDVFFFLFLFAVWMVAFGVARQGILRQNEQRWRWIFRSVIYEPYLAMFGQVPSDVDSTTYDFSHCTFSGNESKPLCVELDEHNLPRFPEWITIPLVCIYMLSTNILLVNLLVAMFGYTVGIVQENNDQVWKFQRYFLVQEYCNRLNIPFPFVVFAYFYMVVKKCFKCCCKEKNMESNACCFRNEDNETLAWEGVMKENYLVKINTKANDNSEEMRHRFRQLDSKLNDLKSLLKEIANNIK
T2 sequence (Q8R455 whole entry): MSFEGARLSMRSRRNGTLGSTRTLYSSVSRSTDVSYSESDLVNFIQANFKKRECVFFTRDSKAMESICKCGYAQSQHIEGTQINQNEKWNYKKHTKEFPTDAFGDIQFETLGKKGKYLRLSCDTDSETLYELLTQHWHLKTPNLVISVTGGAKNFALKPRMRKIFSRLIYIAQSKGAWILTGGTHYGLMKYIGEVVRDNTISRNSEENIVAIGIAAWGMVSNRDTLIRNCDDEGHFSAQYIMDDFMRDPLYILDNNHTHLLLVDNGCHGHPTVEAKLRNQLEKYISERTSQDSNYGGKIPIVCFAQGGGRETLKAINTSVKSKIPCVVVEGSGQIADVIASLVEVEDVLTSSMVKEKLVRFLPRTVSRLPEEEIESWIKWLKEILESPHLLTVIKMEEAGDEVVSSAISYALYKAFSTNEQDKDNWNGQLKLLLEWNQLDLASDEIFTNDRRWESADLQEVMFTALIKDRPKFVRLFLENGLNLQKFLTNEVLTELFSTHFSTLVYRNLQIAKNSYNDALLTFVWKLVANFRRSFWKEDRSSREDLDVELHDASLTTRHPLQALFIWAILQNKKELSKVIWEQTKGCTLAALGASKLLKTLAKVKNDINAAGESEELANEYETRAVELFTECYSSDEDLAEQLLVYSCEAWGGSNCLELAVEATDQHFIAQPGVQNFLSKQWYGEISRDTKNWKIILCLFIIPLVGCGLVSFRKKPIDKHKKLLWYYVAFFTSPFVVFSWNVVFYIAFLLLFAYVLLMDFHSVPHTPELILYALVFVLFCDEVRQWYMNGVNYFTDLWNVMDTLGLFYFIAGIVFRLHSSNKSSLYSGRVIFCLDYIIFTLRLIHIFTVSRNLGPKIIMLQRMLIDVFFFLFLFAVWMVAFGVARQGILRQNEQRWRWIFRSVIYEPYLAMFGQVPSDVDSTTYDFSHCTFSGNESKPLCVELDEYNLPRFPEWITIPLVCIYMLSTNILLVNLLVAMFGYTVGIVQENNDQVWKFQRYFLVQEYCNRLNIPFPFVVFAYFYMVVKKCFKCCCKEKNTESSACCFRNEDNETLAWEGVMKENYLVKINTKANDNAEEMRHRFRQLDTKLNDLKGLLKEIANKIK
T3 sequence (O75762 whole entry, species assumed): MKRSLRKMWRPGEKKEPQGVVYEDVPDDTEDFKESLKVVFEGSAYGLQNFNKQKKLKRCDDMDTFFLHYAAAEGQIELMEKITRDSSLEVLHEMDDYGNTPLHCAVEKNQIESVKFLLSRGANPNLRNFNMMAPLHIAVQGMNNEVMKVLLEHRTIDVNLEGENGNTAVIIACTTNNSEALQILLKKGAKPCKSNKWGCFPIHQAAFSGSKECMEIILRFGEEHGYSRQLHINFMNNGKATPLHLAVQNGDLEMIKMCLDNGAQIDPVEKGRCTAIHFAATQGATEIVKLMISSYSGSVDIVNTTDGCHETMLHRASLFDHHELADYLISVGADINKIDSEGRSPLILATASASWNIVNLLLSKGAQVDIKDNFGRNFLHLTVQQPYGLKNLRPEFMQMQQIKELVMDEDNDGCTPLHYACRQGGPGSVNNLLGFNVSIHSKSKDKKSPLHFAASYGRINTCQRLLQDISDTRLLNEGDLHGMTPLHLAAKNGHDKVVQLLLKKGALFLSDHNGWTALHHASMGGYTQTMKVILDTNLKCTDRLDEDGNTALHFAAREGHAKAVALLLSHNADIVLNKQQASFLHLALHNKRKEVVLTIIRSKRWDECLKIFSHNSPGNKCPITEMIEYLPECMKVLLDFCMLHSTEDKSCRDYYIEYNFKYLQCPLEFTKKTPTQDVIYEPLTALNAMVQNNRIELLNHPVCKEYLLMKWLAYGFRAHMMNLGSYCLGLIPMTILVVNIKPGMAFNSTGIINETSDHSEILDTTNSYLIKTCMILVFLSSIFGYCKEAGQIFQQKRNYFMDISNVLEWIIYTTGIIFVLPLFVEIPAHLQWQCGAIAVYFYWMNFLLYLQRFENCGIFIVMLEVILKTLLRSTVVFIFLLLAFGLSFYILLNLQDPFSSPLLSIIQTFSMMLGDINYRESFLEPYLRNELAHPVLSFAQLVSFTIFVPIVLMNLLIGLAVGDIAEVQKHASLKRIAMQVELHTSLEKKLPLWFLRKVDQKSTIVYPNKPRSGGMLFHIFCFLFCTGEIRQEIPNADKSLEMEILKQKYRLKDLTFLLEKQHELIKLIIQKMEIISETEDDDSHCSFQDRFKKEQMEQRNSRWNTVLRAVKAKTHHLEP

`CNS(=O)(=O)C[C@H]1CC[C@H](N(C)c2ncnc3[nH]ccc23)CC1` [oclacitinib]: the “onset of anti-scratching effects” value with canine atopic dermatitis (oral tablet once or twice a day) is “as early as four hours after dosing”. The Onset in the data set on canine atopic dermatitis (oral tablet) is 15 min, hours.
`COc1ccc(NC(=O)[C@@H]2C[C@H](C)CC[C@H]2C(C)C)cc1` [WS-12]: in the data set on tongue [1], the “Effects of 15 mg on tongue: duration” value is about 20 min and the “Effects of 15 mg on tongue: sensation” value is given as “pleasant cooling in oral cavity”. The negative logarithm of the EC50 (pEC50) on TRPM8 [2] is 6.70. The pEC50 on TRPM8 [3] is 4.66. The negative-log EC50 (pEC50) at TRPM8 [4] was 4.92. In addition, in the data set on philtrum skin, the “Comments: quality of sensation on philtrum skin” value was “pleasant cool sensations on skin”, the Duration of cooling stood at 38 ± 4 min and the Duration-Skin was 0.4 h. Moreover, the “Cooling Intensity Oral Cavity Scaled” value in the data set with oral cavity is reported as 3.
`C=CCN=C=S` [AITC, allyl isothiocyanate]: on TRPA1, the “activity on TRPA1” value is reported as “active”.
Regarding `CCCCCCCP(=O)(C(C)CC)C(C)CC` (stereo not shown) [WS-148], the pEC50 at TRPM8 [2] is 5.39.
`Clc1ccc(COC(Cn2ccnc2)c2ccc(Cl)cc2Cl)c(Cl)c1` (stereo not shown) [miconazole]: the “effect of antifungal shampoo on skin irritation” value in data set [5] is “did not make any difference”.
Turning to `CC(C)OC(=O)CNC(=O)[C@@H]1C[C@H](C)CC[C@H]1C(C)C` [Ax-8, p-Menthane-Gly-OiPr], in the data set with tongue [1], the “Effects of 15 mg on tongue: duration” value is given as about 27 min and the “Effects of 15 mg on tongue: sensation” value is “pleasant cooling in oral cavity”.
Turning to `CCOC(=O)CNC(=O)[C@@H]1C[C@H](C)CC[C@H]1C(C)C` [WS-5], in the data set with tongue [1], the “Effects of 15 mg on tongue: duration” value is recorded as about 12 min and the “Effects of 15 mg on tongue: sensation” value is given as “pleasant cooling in oral cavity”. Further, the pEC50 on TRPM8 [3] is 6.30. Also, the pEC50 on TRPM8 [4] is 4.59. For the same compound, in the data set with philtrum skin, the “Comments: quality of sensation on philtrum skin” value is listed as “pleasant cool sensations of skin”, the Duration of cooling stood at 51 ± 4 min and the Duration-Skin is 0.5 h. In addition, the “Cooling Intensity Oral Cavity Scaled” value in the data set with oral cavity is recorded as 6.
Regarding `O=C1NC(c2cccc([N+](=O)[O-])c2)=CCN1c1ccccc1O` [icilin], the pEC50 on TRPM8 [6] was 6.44. Also, in the data set with scratching excoriations, the scratching excoriations result was “prevented scratching excoriations”. The negative-log EC50 (pEC50) at TRPM8 [2] is 5.85. Moreover, in data set [7], the “Absence of Irritancy” value was “A”, the Potency result is “A”, the “Rapid Onset” value is “B” and the “Safety in Use” value is listed as “A”. Further, the “Sufficient Duration” value in [7] is “A”. On TRPM8 [4], the negative logarithm of the EC50 (pEC50) is 5.15.
As to `CC(C)[C@@H]1CC[C@@H](C)C[C@H]1O` [l-menthol], the pEC50 on TRPM8 [8] was 5.39; at TRPM8 [6] it was 4.17; on TRPM8 [2], 4.98; on TRPM8 [4], 3.71. Moreover, the Duration-Skin in the data set on philtrum skin came to 0.3 h. In the data set on oral cavity, the “Cooling Intensity Oral Cavity Scaled” value was 5.
For the compound `CCNC(=O)[C@@H]1C[C@H](C)CC[C@H]1C(C)C` [WS-3], the “Effects of 15 mg on tongue: duration” value with tongue [1] is about 8 min. For the same compound, the “Effects of 15 mg on tongue: sensation” value with tongue [1] is on record as “pleasant cooling in oral cavity”. Also, the pEC50 was 5.43 at TRPM8 [8], 5.23 at TRPM8 [3] and 3.68 on TRPM8 [4]. This compound registered a Duration-Skin with philtrum skin of 0.3 h. Also, in the data set on oral cavity, the “Cooling Intensity Oral Cavity Scaled” value is recorded as 5.2.
For the compound `CCCCCCCP(=O)(C(C)C)C(C)C` [DIPA-1-7, 1-diisopropylphosphorylheptane], the “Effects of 15 mg on tongue: sensation” value in the data set on tongue [1] is “stinging, painful cold”. The “itch in human subjects” value in [9] was “inhibited the itch of urticaria and scalp itch”. Further, the “sensation on the tongue” value in the data set with tongue [10] was “frigid, stinging, icy, and painful cold”. For the same compound, the “inhibition of pruritogen-induced itch” value in data set [11] is “significantly inhibited itching”. Further, the adverse skin sensations result in the data set with philtrum skin (on skin, contrast to FEMA 4557) is “frigid cold and irritation”.
Consider `CC(C)[C@@H]1CC[C@@H](C)C[C@H]1OCC(O)CO` (stereo partly shown) [Cool 10, menthoxypropanediol], for which, on TRPM8 [8], the negative-log EC50 (pEC50) was 5.22.
Turning to `CCOC(=O)[C@@H](C)NC(=O)[C@@H]1C[C@H](C)CC[C@H]1C(C)C` [CPS-369], the pEC50 is 5.44 on TRPM8 [2] and 4.19 on TRPM8 [4].
For `CC(=O)N1CCN(c2ccc(OCC3COC(Cn4ccnc4)(c4ccc(Cl)cc4Cl)O3)cc2)CC1` (stereo not shown) [ketoconazole], the “effect of antifungal shampoo on skin irritation” value in [5] is “did not make any difference”.

The pEC50 is the negative decadic logarithm of the EC50, by convention in mol/L.
